# Patent publication US11618747B2, “LXR modulators with bicyclic core moiety” (OrsoBio, Inc., priority 2018, dated 2023)
# Biological target: T1, LXRβ ligand-binding domain (Homo sapiens, UniProt P55055, DUP175-175)
# T1 construct: amino acids 156-461; NP009052; made in house; host or cells: E. coli
# T1 sequence (P55055 with tags, fused parts or gaps DUP175-175 limits assumed): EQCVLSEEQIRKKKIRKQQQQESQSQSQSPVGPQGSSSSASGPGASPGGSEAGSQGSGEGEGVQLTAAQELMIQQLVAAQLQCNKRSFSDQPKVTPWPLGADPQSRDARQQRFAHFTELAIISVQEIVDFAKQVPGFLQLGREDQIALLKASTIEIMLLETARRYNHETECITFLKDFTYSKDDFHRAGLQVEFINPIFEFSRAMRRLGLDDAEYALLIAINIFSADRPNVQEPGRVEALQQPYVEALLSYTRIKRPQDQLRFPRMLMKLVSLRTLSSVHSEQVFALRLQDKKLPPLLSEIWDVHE
# Test: TR-FRETβ activity assay (NCoA3 coactivator peptide recruitment)
# Assay type: biochemical
# Conditions: 1 μM 24(S)-25-epoxycholesterol as prestimulating agonist
# Procedure, shortened: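 Inverse agonism assessed by loss of coactivator recruitment, read as TR-FRET 665/615 nm after 1 h equilibration at 4 °C, in triplicate. Ten-point titration from 50 μM to 0.002 μM against LXRβ LBD (76 nM, GST fusion) prestimulated with 1 μM 24(S)-25-epoxycholesterol, with 400 nM NCoA3 peptide, pH 6.8. Sulfonyl acetic acids kept as 20 mM DMSO stocks with 100 mM TFA.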
row,SMILES,FRETβ efficacy (value in brackets)
1,Cc1ccc(S(=O)(=O)n2c(-c3cccc(N4CC(C(=O)O)C4)c3)c(-c3ccsc3C#N)c3cc(F)ccc32)cc1 [3/32],−98%

# Same assay, conditions: 1 μM 24(S)-25-epoxycholesterol as prestimulating agonist; read-out: FRETβ potency
row,SMILES,EC50
1,Cc1ccc(S(=O)(=O)n2c(-c3cccc(N4CC(C(=O)O)C4)c3)c(-c3ccsc3C#N)c3cc(F)ccc32)cc1 [3/32],551 nM

# Same assay, conditions: TR-FRET, 1 μM 24(S)-25-epoxycholesterol prestimulation; read-out: FRETβ (EC50 range)
row,SMILES,EC50
1,Cc1ccc(S(=O)(=O)n2c(-c3cccc(N4CC(C(=O)O)C4)c3)c(-c3ccsc3C#N)c3cc(F)ccc32)cc1 [3/32],100 to 1000 nM
2,Cc1ccc(S(=O)(=O)n2c(-c3cccc(N4CC(C(=O)O)C4)c3)c(-c3ccsc3C#N)c3cc(F)c(F)cc32)cc1 [3/42],1000 to 10000 nM
3,Cc1ccc(S(=O)(=O)n2c(-c3cccc(N4CC(C(=O)O)C4)c3)c(-c3ccsc3C#N)c3cc(F)c(Cl)cc32)cc1 [3/43],1000 to 10000 nM
4,Cc1ccc(S(=O)(=O)n2c(-c3cccc(N4CC(C(=O)O)C4)c3)c(-c3ccsc3C#N)c3cc(Cl)ccc32)cc1 [3/44],1000 to 10000 nM
5,Cc1ccc(S(=O)(=O)n2c(-c3cccc(N4CC(C(=O)O)C4)c3)c(-c3ccsc3C#N)c3cc(C)ccc32)cc1 [3/46],100 to 1000 nM
6,Cc1ccc(S(=O)(=O)n2c(-c3cccc(-c4ccc(C(=O)O)cc4Cl)c3)c(-c3ccsc3C#N)c3cc(F)ccc32)cc1 [3/48],100 to 1000 nM
7,O=C(O)c1ccc(-c2cccc(-c3c(-c4ccccc4C4COC4)c4cc(F)ccc4n3S(=O)(=O)c3ccc(C(F)F)cc3)c2)c(Cl)c1 [3/59],< 100 nM
8,Cc1ccc(S(=O)(=O)n2c(-c3cccc(C45CCC(C(=O)O)(CC4)CC5)c3)c(-c3ccsc3C#N)c3cc(F)ccc32)cc1 [3/64],100 to 1000 nM
9,N#Cc1cccc(C#N)c1-c1c(-c2cccc(-c3c(F)cc(CC(=O)O)cc3F)c2)n(S(=O)(=O)c2ccc(C(F)F)cc2)c2ccc(F)cc12 [3/73],< 100 nM
10,Cc1ccc(S(=O)(=O)n2c(-c3cccc(-c4ccc(C(=O)O)cc4)c3)c(-c3ccsc3C#N)c3cc(F)ccc32)cc1 [5/3],100 to 1000 nM
11,CC(=O)NS(=O)(=O)c1ccc(-c2cccc(-c3c(-c4c(C#N)cccc4C#N)c4cc(F)ccc4n3S(=O)(=O)c3ccc(C(F)F)cc3)c2)c(Cl)c1 [8/8],< 100 nM
12,N#Cc1cccc(C#N)c1-c1c(-c2cccc(-c3ccc(C(=O)NCCS(=O)(=O)O)cc3Cl)c2)n(S(=O)(=O)c2ccc(C(F)F)cc2)c2ccc(F)cc12 [10/1],< 100 nM
13,CN(CCS(=O)(=O)O)C(=O)c1ccc(-c2cccc(-c3c(-c4c(C#N)cccc4C#N)c4cc(F)ccc4n3S(=O)(=O)c3ccc(C(F)F)cc3)c2)c(Cl)c1 [10/2],< 100 nM
14,N#Cc1nccnc1-c1c(-c2cccc(-c3cc(F)c(C(=O)O)cc3Cl)c2)n(S(=O)(=O)c2ccc(C(F)F)cc2)c2ccc(F)cc12 [11/11],< 100 nM
15,N#Cc1cccc(C#N)c1-c1c(-c2cccc(-c3ccc(C(=O)O)cc3Cl)c2)n(S(=O)(=O)c2ccc(C(F)F)cc2)c2ccc(F)cc12 [11/12],< 100 nM

# Tested on: not listed separately
# Test: Short term HFD mouse model: plasma and liver exposure
# Assay type: in vivo, mice (C57BL/6J)
# Conditions: HFD mice, three oral doses of 10 mg/kg, 4 h after last dose
# Method: Short Term HFD Mouse Model:
# The in vivo transcriptional regulation of several LXR target genes by LXR modulators was assessed in mice.
# For this, C57BL/6J were purchased from Elevage Janvier (Rennes, France) at the age of 8 weeks. After an acclimation period of two weeks, animals were preferred on a high fat diet (HFD) (Ssniff Spezialdiäten GmbH, Germany, Surwit EF D12330 mod, Cat. No. E15771-34), with 60 kcal % from fat plus 1% (w/w) extra cholesterol (Sigma-Aldrich, St. Louis, Mo.) for 5 days. Animals were maintained on this diet during treatment with LXR modulators. The test compounds were formulated in 0.5% hydroxypropylmethylcellulose (HPMC) and administered in three doses (from 1.5 to 20 mg/kg each) by oral gavage according to the following schedule: on day one, animals received treatment in the morning and the evening (ca. 17:00), on day two animals received the final treatment in the morning after a 4 h fast and were sacrificed 4 h thereafter. Animal work was conducted according to the national guidelines for animal care in Germany.
# Upon termination, liver was collected, dipped in ice cold PBS for 30 seconds and cut into appropriate pieces. Pieces were snap frozen in liquid nitrogen and stored at −80° C. For the clinical chemistry analysis from plasma, alanine aminotransferase (ALT, IU/mL), cholesterol (CHOL, mg/dL) and triglycerides (TG, mg/dL) were determined using a fully-automated bench top analyzer (Respons®910, DiaSys Greiner GmbH, Flacht, Germany) with system kits provided by the manufacturer.
SMILES,liver exposure 4 h,liver/plasma ratio 4 h,plasma exposure 4 h
N#Cc1cccc(C#N)c1-c1c(-c2cccc(-c3c(F)cc(CC(=O)O)cc3F)c2)n(S(=O)(=O)c2ccc(C(F)F)cc2)c2ccc(F)cc12 [3/73],B (300 nM to ≤1 μM),C (30 to ≤100),D (D: <100 nM)
CC(=O)NS(=O)(=O)c1ccc(-c2cccc(-c3c(-c4c(C#N)cccc4C#N)c4cc(F)ccc4n3S(=O)(=O)c3ccc(C(F)F)cc3)c2)c(Cl)c1 [8/8],B (300 nM to ≤1 μM),B (5 to ≤30),C (C: 100 nM to <300 nM)
N#Cc1cccc(C#N)c1-c1c(-c2cccc(-c3ccc(C(=O)NCCS(=O)(=O)O)cc3Cl)c2)n(S(=O)(=O)c2ccc(C(F)F)cc2)c2ccc(F)cc12 [10/1],B (300 nM to ≤1 μM),C (30 to ≤100),D (D: <100 nM)
CN(CCS(=O)(=O)O)C(=O)c1ccc(-c2cccc(-c3c(-c4c(C#N)cccc4C#N)c4cc(F)ccc4n3S(=O)(=O)c3ccc(C(F)F)cc3)c2)c(Cl)c1 [10/2],D (>10 μM),B (5 to ≤30),D (D: <100 nM)

# Same assay, conditions: HFD mice, three oral doses of 20 mg/kg, 4 h after last dose
SMILES,liver exposure 4 h,liver/plasma ratio 4 h,plasma exposure 4 h
Cc1ccc(S(=O)(=O)n2c(-c3cccc(-c4ccc(C(=O)O)cc4Cl)c3)c(-c3ccsc3C#N)c3cc(F)ccc32)cc1 [3/48],C (1 μM to ≤10 μM),C (30 to ≤100),D (D: <100 nM)
O=C(O)c1ccc(-c2cccc(-c3c(-c4ccccc4C4COC4)c4cc(F)ccc4n3S(=O)(=O)c3ccc(C(F)F)cc3)c2)c(Cl)c1 [3/59],C (1 μM to ≤10 μM),B (5 to ≤30),C (C: 100 nM to <300 nM)
Cc1ccc(S(=O)(=O)n2c(-c3cccc(C45CCC(C(=O)O)(CC4)CC5)c3)c(-c3ccsc3C#N)c3cc(F)ccc32)cc1 [3/64],D (>10 μM),D (>100),C (C: 100 nM to <300 nM)
Cc1ccc(S(=O)(=O)n2c(-c3cccc(-c4ccc(C(=O)O)cc4)c3)c(-c3ccsc3C#N)c3cc(F)ccc32)cc1 [5/3],C (1 μM to ≤10 μM),B (5 to ≤30),D (D: <100 nM)
N#Cc1nccnc1-c1c(-c2cccc(-c3cc(F)c(C(=O)O)cc3Cl)c2)n(S(=O)(=O)c2ccc(C(F)F)cc2)c2ccc(F)cc12 [11/11],D (>10 μM),D (>100),D (D: <100 nM)
N#Cc1cccc(C#N)c1-c1c(-c2cccc(-c3ccc(C(=O)O)cc3Cl)c2)n(S(=O)(=O)c2ccc(C(F)F)cc2)c2ccc(F)cc12 [11/12],C (1 μM to ≤10 μM),C (30 to ≤100),D (D: <100 nM)
